Patent US5244907A, “Carbocyclic carboxylic acid amides and esters of azabicyclic compounds as gastric prokinetic, antiemetic, anxiolytic and antiarrhythmic agents” (A. H. Robins Company, Incorporated, priority 1992, dated 1993)

Key:
cisplatin-induced emesis = assay: Cisplatin-induced emesis in dogs; format: in vivo; conditions: Canis lupus familiaris; 1 mg/kg IV; cisplatin 3.0 mg/kg IV; 5 hours; read-out: Antiemetic: % change in emetic episodes in dogs induced by cisplatin
Method: A. Effect of Invention Compounds on Cisplatin-induced Emesis in Dogs
The procedure used to test compounds of the present invention for antiemetic properties is a modification of the method of Gylys et al., Res. Commun. Chem. Pathol. Pharm., 23, 61(1979).
Adult, mongrel unfasted dogs of both sexes are randomly assigned into treatment groups, with each treatment group consisting of four dogs. On the dosing day all dogs are given cisplatin, 3.0 mg/kg, intravenously. Sixty minutes later, the dogs in the control treatment group are given deionized water, 0.1 mL/kg intravenously and dogs receiving test compounds are given the test compound in solution (1 mg/kg, IV). All doses are administered as a solution by means of a syringe and needle, and each dog's emetic episodes are recorded for 5 hours after the administration of cisplatin.
^2 % change in emetic episodes in dogs at 1 mg/kg IV induced by […]

[1] = test system: gastric emptying of test meal; assay: Gastric emptying of a test meal in fasted rats; format: in vivo; conditions: Rattus norvegicus, 1 h; for change in vivo at 10 mg/kg: 10 mg/kg IP; for change in vivo at 9 mg/kg: 9 mg/kg IP (printed 09)
Method: B. Effect of Invention Compounds on Gastric Emptying of a Test Meal in Fasted Rats
The procedure used to test compounds of the present invention for gastric motility enhancing activity is that of Droppleman et al., J. Pharmacol. Methods, 4,227(1980).
Each animal is dosed intraperitoneally (9 or 10 mg/kg) with a test compound or control. After 30 minutes each animal is given 3 mL of a methylcellulose-based test meal formulation. Sixty minutes after administration of the test meal, each animal is sacrificed by cervical dislocation, and the stomach is removed and weighed. The stomach is cut open, rinsed and dried, and reweighed. This difference between the full and empty weights (amount of meal remaining in stomach) is subtracted from the weight of the original test meal to determine the meal amount emptied from the stomach during the test period.
^1 % change in gastric emptying of test meal in rats (dose, mg/kg IP)

[2] = test system: von Bezold-Jarisch reflex evoked by 5-HT (serotonin); assay: Antagonism of the von Bezold-Jarisch reflex evoked by 5-HT in anaesthetized rats; format: in vivo; conditions: Rattus norvegicus; 0.0316 mg/kg IV in anesthetized rats; read-out: Antiserotonin: von Bezold-Jarisch reflex % change in serotonin-induced bradycardia
Method: F. Antagonism of the von Bezold-Jarisch Reflex
The compounds are evaluated for antagonism of the von Bezold-Jarisch reflex evoked by 5-HT (serotonin) in anaesthetized rats according to the method described in European Patent Application 200-444 (Beecham Group).
Male rats (250-350 g) are anaesthetized with urethane (1.25 g/kg intraperitoneally), and blood pressure and heart rate are recorded as described by Fozard J. R. et al., J. Cardiovasc. Pharmacol. 2, 229-245 (1980). A submaximal dose of 5-HT (usually […]) is given repeatedly by the intravenous route and changes in heart rate quantified. Compounds are given intravenously and the inhibition of the 5-HT evoked response is measured. In addition, the concentration required to reduce the 5-HT evoked response to 50% of the control response (ED50) can be determined.
^3 Von BezoldJarisch reflex % change in serotonininduced bradycardia
at 0.0316 mg/kg IV in anesthesized rats.

[3] = test system: exploratory light/dark behavior; assay: Anxiolytic test, exploratory light/dark (mice); format: in vivo; conditions: 10 mg/kg IP, significant increase as compared with the controls (30%)
Method: Exploratory Light/Dark (mice)
This method has been described by Young and Johnson (1988) and is a modification of the procedure described by Costall and Naylor (1988). A two compartment light-dark activity monitoring device (Digiscan Model RXYZCM16, Omnitech Electronics Inc., Columbus, Ohio) is used. A 90W light source located 30 cm above the box provides light to the lit portion of the apparatus. Behavioral testing is conducted in a sound-attenuated, darkened room illuminated with red light (25W red bulb) only.
Each animal (mouse) receives a dose or doses of either the test, reference, or control article. The animal is placed at the center of the illuminated area and the behavioral activity tallied over a 5 minute period by use of the Digiscan analyzer. Behavioral variables recorded included: the time spent in the lit and dark areas, the number of rearings in the lit and dark areas, the number of locomotor activity counts in the lit and dark areas, the number of transitions between the lit and dark and lit areas, the latency to make the first transition from the lit area to the dark area, rearing time in the lit and dark areas, locomotor time in the lit and dark areas, and resting time in the lit and dark areas. Appropriate statistical analyses for each measure are performed. […]

canine Purkinje fibers = assay: Cellular electrophysiologic effects in canine Purkinje fibers in vitro; format: cell-based, dog (canine); conditions: Canis lupus familiaris, 20 min, 10^-4 M, after 20 min exposure, read-out: increase in action potential duration at 90% repolarization (APD90)
Method: G. Measurement of Cellular Electrophysiologic Effects in Canine Purkinje Fibers in Vitro
Dogs (12-18 kg) were anesthetized with sodium pentobarbital (30 mg/kg IV). The heart of each dog was rapidly removed through a right lateral thoracotomy and placed in a chilled, oxygenated Tyrode's solution. Purkinje fibers from the right and left ventricles were excised and mounted in a Lucite chamber. The tissue was superfused at a rate of 10-15 mL/min with Tyrode's solution. The temperature of the superfused Tyrode's was maintained at 37° C. and gassed with 95% oxygen-5% carbon dioxide mixture.
The Purkinje fibers were stimulated (paced at cycle length of 400 to 1000 msec) with a silver bipolar wire electrode placed on the surface of the tissue. Transmembrane action potentials were recorded with a glass capillary microelectrodes filled with 3M KCl. […] The measurements derived from the action potential were Vmax (upstroke velocity), APD50 (action potential duration at 50% repolarization), and APD90 (action potential duration at 90% repolarization) as previously described (Bigger and Mandel, 1970; Wu and Hoffman, 1987). […] Measurements of the action potential parameters were recorded after 20 min of test drug exposure. […] Changes in the action potential measurements produced by the test compound were analyzed for statistical significance using a paired-t test. […]

Compound: COc1cc(N)c(Cl)cc1C(=O)NCC12CCCN(CC1)C2 (stereo not drawn) [Example 1, 4-Amino-N-(1-azabicyclo[3.2.1]oct-5ylmethyl)-5-chloro-2-methoxybenzamide]
- change in vivo at 1 mg/kg (cisplatin-induced emesis): -76%
- change in vivo at 10 mg/kg [1]: 47%

Compound: COCCOc1cc(N)c(Cl)cc1C(=O)NCC12CCCN(CCC1)C2 [Example 6, 4-Amino-N-(1-azabicyclo[3.3.1]non-5-ylmethyl)-5-chloro-2-(2-methoxyethoxy)benzamide]
- change in vivo at 0.0316 mg/kg [2]: -30%

Compound: Cn1cc(C(=O)OCC23CCCN(CC2)C3)c2ccccc21 (stereo not drawn) [Example 12, 1-Methyl-1H-indole-3-carboxylic acid 1-azabicyclo[3.2.1]oct-5-ylmethyl ester]
- change in vivo at 0.0316 mg/kg [2]: -81%
- time spent in the lit area [3]: 58%

Compound: COc1cc(N)c(Cl)cc1C(=O)OCC12CCCN(CC1)C2 (stereo not drawn) [Example 10, 4-Amino-5-chloro-2-methoxybenzoic acid 1-azabicyclo[3.2.1]oct-5-ylmethyl ester]
- change in vivo at 0.0316 mg/kg [2]: -82%
- change in vivo at 1 mg/kg (cisplatin-induced emesis): -82%
- change in vivo at 10 mg/kg [1]: 47%

Compound: Cn1nc(C(=O)OCC23CCCN(CC2)C3)c2ccccc21 (stereo not drawn) [Example 15, 1-Methyl-1H-indazole-3-carboxylic acid 1-azabicyclo[3.2.1]oct-5-ylmethyl ester]
- change in vivo at 0.0316 mg/kg [2]: -72%
- change in vivo at 1 mg/kg (cisplatin-induced emesis): -93%
- change in vivo at 10 mg/kg [1]: 31%

Compound: O=C(OCC12CCCN(CCC1)C2)c1c[nH]c2ccccc12 [Example 14, 1H-Indole-3-carboxylic acid 1-azabicyclo[3.3.1]non-5-ylmethyl ester]
- change in vivo at 0.0316 mg/kg [2]: -0.3%
- change in vivo at 9 mg/kg [1]: 10%

Compound: CNc1cc(OC)c(C(=O)NCC23CCCN(CCC2)C3)cc1Cl [Example 5, N-(1-Azabicyclo[3.3.1]non-5-ylmethyl)-5-chloro-2-methoxy-4-(methylamino)benzamide]
- change in vivo at 1 mg/kg (cisplatin-induced emesis): -71%
- change in vivo at 9 mg/kg [1]: 58%

Compound: Cn1cc(C(=O)NCC23CCCN(CCC2)C3)c2ccccc21 [Example 8]
- change in vivo at 1 mg/kg (cisplatin-induced emesis): -49%

Compound: COCCOc1cc(N)c(Cl)cc1C(=O)NCC12CCCN(CC1)C2 (stereo not drawn) [Example 3]
- change in vivo at 0.0316 mg/kg [2]: -74%
- change in vivo at 1 mg/kg (cisplatin-induced emesis): -51%
- change in vivo at 10 mg/kg [1]: 31%

Compound: CS(=O)(=O)Nc1ccc(C(=O)NCC23CCCN(CCC2)C3)cc1 [Example 9, N-(1-Azabicyclo[3.3.1]non-5-ylmethyl)-4-[(methylsulfonyl)amino]benzamide]
- activation at 100 µM (canine Purkinje fibers): 8.5%

Compound: CNc1cc(OC)c(C(=O)NCC23CCCN(CC2)C3)cc1Cl (stereo not drawn) [Example 2]
- change in vivo at 1 mg/kg (cisplatin-induced emesis): -63%
- change in vivo at 9 mg/kg [1]: 62%

Compound: COc1cc(N)c(Cl)cc1C(=O)NCC12CCCN(CCC1)C2 [Example 4, 4-Amino-N-(1-azabicyclo[3.3.1]non-5-ylmethyl)-5-chloro-2-methoxybenzamide]
- change in vivo at 0.0316 mg/kg [2]: -32%
- change in vivo at 1 mg/kg (cisplatin-induced emesis): -62%
- change in vivo at 10 mg/kg [1]: 31%

Compound: COc1cc(N)c(Cl)cc1C(=O)OCC12CCCN(CCC1)C2 [Example 13, 4-Amino-5-chloro-2-methoxybenzoic acid 1-azabicyclo[3.3.1]non-5-ylmethyl ester]
- change in vivo at 0.0316 mg/kg [2]: -23%
- change in vivo at 1 mg/kg (cisplatin-induced emesis): -50%
- change in vivo at 9 mg/kg [1]: 41%

Compound: O=C(OCC12CCCN(CC1)C2)c1c[nH]c2ccccc12 (stereo not drawn) [Example 11, 1H-Indole-3-carboxylic acid 1-azabicyclo[3.2.1]oct-5-ylmethyl ester]
- change in vivo at 0.0316 mg/kg [2]: -86%
- change in vivo at 1 mg/kg (cisplatin-induced emesis): -85%
